From patent publication US20260184663A1, “INDENE COMPOUNDS, PHARMACEUTICAL COMPOSITIONS THEREOF, AND THEIR THERAPEUTIC APPLICATIONS” (NucMito Pharmaceuticals co. Ltd., priority 2022, published 2026)

What was measured:
Format in all cases: cell-based
[1] = system: MDA-MB-231 (breast cancer); test: Antiproliferative activity (CCK-8 cell viability), MDA-MB-231; settings: Homo sapiens, 72 h; for inhibition at 3.3 µM: Compound concentration: 3.3 μM; for inhibition at 3.3 µM / inhibition at 10 µM: read-out: Antiproliferative activity in cancerous cells, MDA-MB-231 (inhibition of cell growth); for inhibition at 10 µM: Compound concentration: 10 μM
Experimental: (§1) The antiproliferative activity of a compound was determined in the following cell lines: MDA-MB-231 (breast cancer), HepG2 (liver cancer), SW480 (colon cancer), B16F10 (malignant melanoma), A431 (epidermoid carcinoma), A549 (lung adenocarcinoma), and HeLa (cervical cancer). MDA-MB-231, HepG2, SW480, B16F10, and A431 cells were cultured in Dulbecco's modified Eagle's medium (DMEM) containing 10% fetal bovine serum (FBS). HeLa cells were cultured in MEM/EBSS (MEM) containing 10% FBS. A549 cells were maintained in Kaighn's modification of Ham's F-12 medium containing 10% FBS. A Cell Counting Kit-8 (CCK-8) was used to measure the cell viability of different cells following treatment with the compound.
(§2) Briefly cells were seeded in a 96-well plate at a density of 2,000-5,000 cells/well. Following attachment, the cells were treated with the compound in media at a compound concentration of 3.3 μM, 10 μM, or 30 μM. After the cells were incubated at 37° C. for 72 h, a CCK-8 solution (10 μL) was added to each well. After incubation at 37° C. for 4 h, the absorbance value of each well was determined using a multi-well plate reader at 450 nm. The wells treated with DMSO were taken as a vehicle control. Data were also obtained similarly for all the replicates and the percentage of cell viability was determined with respect to the DMSO-treated cells. The results are summarized in Tables 2-4, wherein A represents no less than […] of cell growth; B represents no less than 30% but less than 50% inhibition of cell growth; and C represents less than 30% inhibition of cell growth.

HepG2 (liver cancer) = test: Antiproliferative activity (CCK-8 cell viability), HepG2; settings: Homo sapiens, 72 h; for inhibition at 3.3 µM: Compound concentration: 3.3 μM; for inhibition at 3.3 µM / inhibition at 10 µM: read-out: Antiproliferative activity in cancerous cells, HepG2 (inhibition of cell growth); for inhibition at 10 µM: Compound concentration: 10 μM
Experimental: as §1, §2

SW480 (colon cancer) = test: Antiproliferative activity (CCK-8 cell viability), SW480; settings: Homo sapiens, 72 h; for inhibition at 3.3 µM: Compound concentration: 3.3 μM; for inhibition at 3.3 µM / inhibition at 10 µM: read-out: Antiproliferative activity in cancerous cells, SW480 (inhibition of cell growth); for inhibition at 10 µM: Compound concentration: 10 μM; for inhibition at 30 µM: Compound concentration: 30 μM, read-out: Antiproliferative activity in cancerous cells, SW480
Experimental: as §1, §2

[2] = system: B16F10 (malignant melanoma); test: Antiproliferative activity (CCK-8 cell viability), B16F10; settings: Mus musculus, 72 h, read-out: Antiproliferative activity in cancerous cells, B16F10 (inhibition of cell growth); for inhibition at 3.3 µM: B16-F10, Compound concentration: 3.3 μM; for inhibition at 10 µM: B16-F10, Compound concentration: 10 μM
Experimental: as §1, §2

[3] = system: A431 (epidermoid carcinoma); test: Antiproliferative activity (CCK-8 cell viability), A431; settings: Homo sapiens, 72 h; for inhibition at 3.3 µM: A-431, Compound concentration: 3.3 μM; for inhibition at 3.3 µM / inhibition at 10 µM: read-out: Antiproliferative activity in cancerous cells, A431 (inhibition of cell growth); for inhibition at 10 µM: A-431, Compound concentration: 10 μM; for inhibition at 30 µM: A-431, Compound concentration: 30 μM, read-out: Antiproliferative activity in cancerous cells, A431
Experimental: as §1, §2

[4] = system: A549 (lung adenocarcinoma); test: Antiproliferative activity (CCK-8 cell viability), A549; settings: Homo sapiens, 72 h; for inhibition at 3.3 µM: Compound concentration: 3.3 μM; for inhibition at 3.3 µM / inhibition at 10 µM: read-out: Antiproliferative activity in cancerous cells, A549 (inhibition of cell growth); for inhibition at 10 µM: Compound concentration: 10 μM; for inhibition at 30 µM: Compound concentration: 30 μM, read-out: Antiproliferative activity in cancerous cells, A549
Experimental: as §1, §2

HeLa (cervical cancer) = test: Antiproliferative activity (CCK-8 cell viability), HeLa; settings: Homo sapiens, 72 h, read-out: Antiproliferative activity in cancerous cells, HELA (inhibition of cell growth); for inhibition at 3.3 µM: Compound concentration: 3.3 μM; for inhibition at 10 µM: Compound concentration: 10 μM
Experimental: as §1, §2

Structure (SMILES)	inhibition at 3.3 µM [1]	inhibition at 10 µM [1]	inhibition at 3.3 µM (HepG2 (liver cancer))	inhibition at 10 µM (HepG2 (liver cancer))	inhibition at 3.3 µM (SW480 (colon cancer))	inhibition at 10 µM (SW480 (colon cancer))	inhibition at 3.3 µM [2]	inhibition at 10 µM [2]	inhibition at 3.3 µM [3]	inhibition at 10 µM [3]	inhibition at 3.3 µM [4]	inhibition at 10 µM [4]	inhibition at 3.3 µM (HeLa (cervical cancer))	inhibition at 10 µM (HeLa (cervical cancer))	inhibition at 30 µM ([1]; Compound concentration: 30 μM, read-out: Antiproliferative activity in cancerous cells, MDA-MB-231)	inhibition at 30 µM (HepG2 (liver cancer); Compound concentration: 30 μM, read-out: Antiproliferative activity in cancerous cells, HepG2)	inhibition at 30 µM (SW480 (colon cancer))	inhibition at 30 µM [3]	inhibition at 30 µM [4]
O=C(O)CC1=C(Cc2ccc(Oc3ccc(F)cc3)cc2)/C(=C/c2ccc(Oc3ccc(F)cc3)cc2)c2ccc(F)cc21 [A107, (Z)-2-(5-Fluoro-2-(4-(4-fluorophenoxy)benzyl)-1-(4-(4-fluorophenoxy)-benzylidene)-1H-inden-3-yl)acetic acid]	≥ 50%	≥ 50%	≥ 50%	≥ 50%	≥ 50%	≥ 50%	≥ 50%	≥ 50%	≥ 50%	≥ 50%	≥ 50%	≥ 50%	≥ 50%	≥ 50%	–	–	–	–	–
O=C(O)CC1=C(Cc2ccc(Oc3ccc(F)cc3)cc2)/C(=C/c2ccc(Cc3ccc(F)cc3)cc2)c2ccc(F)cc21 [A112, (Z)-2-(5-Fluoro-1-(4-(4-fluorobenzyl)benzylidene)-2-(4-(4-fluorophenoxy)-benzyl)-1H-inden-3-yl)acetic acid]	≥ 50%	≥ 50%	30 to 50%	≥ 50%	≥ 50%	≥ 50%	30 to 50%	≥ 50%	≥ 50%	≥ 50%	≥ 50%	≥ 50%	≥ 50%	≥ 50%	–	–	–	–	–
CC1=C(CC(O)CO)c2ccccc2/C1=C\c1ccc(Oc2ccc(F)cc2)cc1 (centres unmarked) [A203, (Z)-3-(1-(4-(4-Fluorophenoxy)benzylidene)-2-methyl-1H-inden-3-yl)propane-1,2-diol]	< 30%	≥ 50%	< 30%	< 30%	< 30%	30 to 50%	< 30%	≥ 50%	30 to 50%	≥ 50%	< 30%	≥ 50%	< 30%	≥ 50%	–	–	–	–	–
CC1=C(CCOC(=O)n2ccnc2)c2cc(F)ccc2/C1=C\c1ccc(Oc2ccc(F)cc2)cc1 [A204, (Z)-2-(5-Fluoro-1-(4-(4-fluorophenoxy)benzylidene)-2-methyl-1H-inden-3-yl)ethyl 1H-imidazole-1-carboxylate]	< 30%	< 30%	< 30%	< 30%	< 30%	< 30%	< 30%	< 30%	< 30%	< 30%	< 30%	< 30%	< 30%	< 30%	30 to 50%	< 30%	30 to 50%	< 30%	30 to 50%
CC1=C(CCOC(=O)N(C)N)c2cc(F)ccc2/C1=C\c1ccc(Oc2ccc(F)cc2)cc1 [A205, (Z)-2-(5-Fluoro-1-(4-(4-fluorophenoxy)benzylidene)-2-methyl-1H-inden-3-yl)ethyl 1-methylhydrazine-1-carboxylate]	< 30%	≥ 50%	30 to 50%	≥ 50%	< 30%	< 30%	< 30%	< 30%	< 30%	< 30%	< 30%	< 30%	30 to 50%	≥ 50%	–	–	30 to 50%	30 to 50%	30 to 50%
CC1=C(CC(=O)O)c2cc(F)ccc2/C1=C\c1cccc(CNc2ccccc2)c1 [B14, (Z)-2-(5-Fluoro-2-methyl-1-(3-((phenylamino)methyl)benzylidene)-1H-inden-3-yl)acetic acid]	< 30%	30 to 50%	< 30%	< 30%	< 30%	< 30%	< 30%	30 to 50%	< 30%	< 30%	≥ 50%	≥ 50%	30 to 50%	30 to 50%	–	–	30 to 50%	30 to 50%	30 to 50%
CC1=C(CC(=O)O)c2cc(F)ccc2/C1=C\c1ccc(CN(CCc2ccccc2)c2ccccc2)cc1 [B19, (Z)-2-(5-Fluoro-2-methyl-1-(4-((phenethyl(phenyl)amino)methyl)benzylidene)-1H-inden-3-yl)acetic acid]	≥ 50%	≥ 50%	< 30%	≥ 50%	30 to 50%	≥ 50%	< 30%	≥ 50%	< 30%	≥ 50%	≥ 50%	≥ 50%	30 to 50%	≥ 50%	–	–	–	–	–
CC1=C(CC(=O)O)c2cc(F)ccc2/C1=C\c1ccc(OCCc2ccccc2)cc1 [B30, (Z)-2-(5-Fluoro-2-methyl-1-(4-phenethoxybenzylidene)-1H-inden-3-yl)acetic acid]	< 30%	≥ 50%	< 30%	≥ 50%	< 30%	≥ 50%	< 30%	< 30%	≥ 50%	≥ 50%	30 to 50%	≥ 50%	< 30%	≥ 50%	–	–	–	–	–
CC1=C(CC(=O)O)c2cc(F)ccc2/C1=C\c1ccc(OCCc2ccc(F)cc2)cc1 [B31, (Z)-2-(5-Fluoro-1-(4-(4-fluorophenethoxy)benzylidene)-2-methyl-1H-inden-3-yl)acetic acid]	< 30%	≥ 50%	< 30%	≥ 50%	< 30%	< 30%	≥ 50%	≥ 50%	30 to 50%	≥ 50%	30 to 50%	30 to 50%	< 30%	≥ 50%	–	–	–	–	–
